Measurements taken from patent US12668803B2, “Glypican-3-specific modified aptamer and use thereof” (APTAMER SCIENCES INC., priority 2019, dated 2026).

What was measured:
GPC3 = GPC3 (Homo sapiens, UniProt P51654); assay: Protein binding assay with 32P-labeled aptamers (Zorbax resin, filter plate, phosphorimager); settings: FIG. 1
Description: To select an aptamer which is the most specific to GPC3 from 7 aptamer libraries expected to be specific to GPC3 [2428-12-09, 2428-12-10, 2428-12-11, 2424-30-01, 2424-30-05, 2424-30-06, 2424-30-07, all 40-mer], a binding assay was performed through […] labeling. In detail, to […] RI-labeled and unlabeled oligonucleotide region at the oligonucleotide 3′-end of each candidate aptamer sequence, 0.25 μL of α-32P, 0.25 μL of DNA nucleotidylexotransferase (terminal transferase), 1 μL of 10×NEB buffer (New England Biolabs, USA), 1 μL of CoCl2, 7.5 μL of a template (aptamer sequence) (total 10 μL) were added to a plate, which was then sealed with foil, and then incubated at 37° C. for 30 min (enzyme incubation). After incubation at 70° C. for 10 min (enzyme incubation), each of the incubated samples was diluted with 30 μL of distilled water. The lower part of the Microspin G-50 column was removed and a tube was put thereon. After spinning at 800 rcf for 1 min, the tube was removed. The sample was put in a resin, followed by spinning at room temperature and 800 rcf for 2 min.
The aptamers, from which RI-labeled and unlabeled oligonucleotide ends were removed, were diluted with 100 μL of 1×SB18T0.05 to 20,000 cpm. The aptamers were heated at 95° C. for 5 min, and subsequently, cooled at 37° C. for 15 min. 100 nM of protein (GPC3) was subjected to 4.64-fold serial dilution, and each 30 μL of a total of 8 points was added to each well. 200 μL of 1×SB18T0.05 was added to the aptamers, of which heating and cooling were completed, and then 30 μL thereof was added to each well for a total volume of 60 μL. 2 μL of the aptamer was dropped as an input control on a nylon filter, followed by incubation at 37° C. for 30 min. During incubation, 30 μL of 1×SB18T0.05 was added to a filter plate in advance. After incubation, 5.5 μL of Zorbax resin was added, and allowed to react at 1400 rpm for 1 min. […] The screen was analyzed, and the binding degree according to each protein concentration was derived (percentage bound value).

[1] = system: squamous cell carcinoma cells (A431); assay: Cell cycle analysis (propidium iodide, FACS); format: cell-based; settings: 4 hr treatment, FIG. 27
Description: (§1) To analyze the effects of combi 4 and combi 5 bound with three or five gemcitabines on the cell cycle of hepatoma cells, cell cycle analysis was performed. In detail, Hep3B, HepG2, and A431 cells were seeded in a 6-well plate at a density of 1×10^6/ml, and cultured using a DMEM medium containing 10% FBS and 1% antibiotics (penicillin/streptomycin) under conditions of 5% CO2 and 37° C., respectively. Next day, 100 μM of the modified aptamer stock was mixed with 5×SB18 buffer to prepare the aptamer at a concentration of 80 μM, and heated at 95° C. for 5 min, and then cooled at room temperature for 15 min or more. The medium was removed from the cultured cells, and replaced by a serum-free medium, and cultured under conditions of 37° C. and 5% CO2 for 1 hr. The serum-free medium was removed, and then the cells were washed with 2 ml of 1×PBS. 2 ml of KRPH buffer was added, and cultured under conditions of 37° C. and 5% CO2 for 1 hr. The aptamer was added, and cultured under conditions of 37° C. and 5% CO2 for 4 hr. The KRPH buffer was removed, and 2 ml of 1×PBS was added thereto to perform washing, and then PBS was removed. 2 ml of 1×PBS was added, and cells were scraped using a scraper, and collected in FACs tubes, followed by centrifugation at 4° C. and 2000 rpm for 4 minutes. 1/500-fold diluted RNAase A and propidium iodide diluted with PBS at a concentration of 50 μg/ml were added to the FACs tubes at a volume of 500 μL, followed by pipetting. Incubation was performed at room temperature for 30 min while blocking the light, and then cell cycle was measured.

[2] = system: hepatoma cells (Hep3B, HepG2); assay: Cell cycle analysis (propidium iodide, FACS); format: cell-based; settings: 4 hr treatment, FIGS. 25 and 26
Description: as §1

[3] = system: GPC3-expressing hepatoma cells; assay: Cell-killing effect (CCK-8) of gemcitabine-bound combi aptamers; format: cell-based; settings: FIG. 23 and FIG. 24
Description: In detail, Huh-7 cells (ATCC, Rockville, MD, USA) were seeded in a 96-well plate at a density of 1×10^4/mL, and cultured using a DMEM (Gibco, Grand Island, NY, USA) medium containing 10% FBS (Gibco, Grand Island, NY, USA) and 1% antibiotics (penicillin/streptomycin) under conditions of 5% CO2 and 37° C. Next day, the aptamer stock (100 μM) was mixed with 5×SB18 buffer to prepare the stock at a concentration of 80 μM, and heated at 95° C. for 5 min, and then cooled at room temperature for 15 min or more. The medium was removed from the cultured cells, and 100 μL of a serum-free medium was added thereto, and cultured under conditions of 37° C. and 5% CO2 for 1 hr. The serum-free medium was removed, and then the cells were washed with 100 μL of 1×PBS. 100 μL of KRPH buffer was added, and cultured under conditions of 37° C. and 5% CO2 for 1 hr. The aptamer was diluted with KRPH buffer to 2-fold of the desired concentration, and added to a 96-well plate at 1× concentration, and cultured under conditions of 37° C. and 5% CO2 for 4 hr. After treatment with the aptamer, the KRPH buffer was removed, and then 100 μL of culture medium was added and cultured under conditions of 37° C. and 5% CO2 for […]. 6 days later, 10 μL of a kit solution of CCK-8 (Cell Counting Kit-8) was added to each well, and then cultured under conditions of 37° C. and 5% CO2 for 3 hr. Cell death levels were examined at […] using a microplate reader.

GPC3, sequence (P51654 25-554): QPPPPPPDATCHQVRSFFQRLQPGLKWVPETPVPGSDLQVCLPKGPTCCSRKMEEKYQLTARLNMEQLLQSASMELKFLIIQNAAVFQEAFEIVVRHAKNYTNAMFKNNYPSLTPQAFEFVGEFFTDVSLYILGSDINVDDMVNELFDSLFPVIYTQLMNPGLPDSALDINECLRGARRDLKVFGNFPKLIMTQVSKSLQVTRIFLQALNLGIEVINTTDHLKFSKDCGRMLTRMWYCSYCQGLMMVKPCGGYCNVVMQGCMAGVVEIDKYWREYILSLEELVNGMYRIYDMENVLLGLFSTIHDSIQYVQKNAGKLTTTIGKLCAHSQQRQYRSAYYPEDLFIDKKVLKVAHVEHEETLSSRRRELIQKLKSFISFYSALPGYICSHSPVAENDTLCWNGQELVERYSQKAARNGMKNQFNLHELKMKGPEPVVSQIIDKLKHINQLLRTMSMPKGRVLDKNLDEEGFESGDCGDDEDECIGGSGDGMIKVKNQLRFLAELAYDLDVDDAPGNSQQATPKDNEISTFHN

With “12-10: SEQ ID NO: 1, 40-mer GPC3-specific aptamer with BzdU bases (GGGAAGnGAAnGCGnnGAAnnAnGnCCCnnCAGnCAnCAC; BzdU bases, as printed in the source, key not given here)” as the molecule, how does the “binding ability among the candidates” value (GPC3; 7 candidate 40-mer aptamers) read?
The value was “most excellent binding ability”.

What about the “maximum binding capacity (Bmax)” value (GPC3) of the same molecule?
Its value is 0.79.

What about the Kd (GPC3; read-out: dissociation constant (Kd)) of the same molecule?
Its Kd is 1.5 nM.

For Nc1ccn([C@@H]2O[C@H](CO)[C@@H](O)C2(F)F)c(=O)n1 [gemcitabine, 2′,2′-difluoro 2′-deoxycytidine, reference compound], which cell cycle arrest [1] is on record?
The cell cycle arrest was “no cell cycle arrest”.

“Combi 4 G(5) (DNA GNGAANGCGNNGAANNANGYSSSNNCAGNCANSAS; 5 gemcitabines, 2'-OMe, 2'-F, BzdU, 3' idT; Combi 4 G(5); (1)..(1) G is 2-O-Methoxy-DNA.; (2)..(2) n is BzdU.; (3)..(3) G is 2-O-Methoxy-DNA.; (4)..(4) A is 2-Fluorine-DNA.; (5)..(5) A is 2-Fluorine-DNA.; (6)..(6) n is BzdU.; (10)..(10) n is BzdU.; (11)..(11) n is BzdU.; (12)..(12) G is 2-Fluorine-DNA.; (13)..(13) A is 2-Fluorine-DNA.; (14)..(14) A is 2-Fluorine-DNA.; (15)..(15) n is BzdU.; (16)..(16) n is BzdU.; (17)..(17) A is 2-Fluorine-)” was tested. Which cell cycle arrest [1] did it give?
Its cell cycle arrest is “no cell cycle arrest”.

And the cell cycle arrest [2]?
The cell cycle arrest was “arrested hepatoma cells at the G1/S phase”.

What about the “concentration from which a cell-killing effect is shown” value (shortened to “concentration”) [3] of the same molecule?
Its value is 100 nM.

With “Combi 5 G(5) (DNA GNGAANGCGNNGAANNANWYSSSNNCAGNCANSAS; 5 gemcitabines, 2'-OMe, BzdU; Combi 5 G(5); (1)..(1) G is 2-O-Methoxy-DNA.; (2)..(2) n is BzdU.; (3)..(3) G is 2-O-Methoxy-DNA.; (4)..(4) A is 2-Fluorine-DNA.; (5)..(5) A is 2-Fluorine-DNA.; (6)..(6) n is BzdU.; (10)..(10) n is BzdU.; (11)..(11) n is BzdU.; (12)..(12) G is 2-Fluorine-DNA.; (13)..(13) A is 2-Fluorine-DNA.; (14)..(14) A is 2-O-Methoxy-DNA.; (15)..(15) n is BzdU.; (16)..(16) n is BzdU.; (17)..(17) A is 2-O-Methox)” as the molecule, how does the cell cycle arrest [1] read?
The cell cycle arrest was “no cell cycle arrest”.

And the cell cycle arrest [2]?
Its cell cycle arrest is “arrested hepatoma cells at the G1/S phase”.

And the “concentration” value [3]?
Its value is 100 nM.

With “Combi 11 G(3) (DNA GNGAANGCGNNGAANNANWYSSSNNCAGNCANCAC; gemcitabines, 2'-MOE, 2'-F, BzdU, 3' idT; Combi 11 G(3); (1)..(1) G is 2-Methoxyethyl-DNA.; (2)..(2) n is BzdU.; (3)..(3) G is 2-Methoxyethyl-DNA.; (4)..(4) A is 2-Fluorine-DNA.; (5)..(5) A is 2-Fluorine-DNA.; (6)..(6) n is BzdU.; (10)..(10) n is BzdU.; (11)..(11) n is BzdU.; (12)..(12) G is 2-Fluorine-DNA.; (13)..(13) A is 2-Fluorine-DNA.; (14)..(14) A is 2-Methoxyethyl-DNA.; (15)..(15) n is BzdU.; (16)..(16) n is BzdU.; (17)..(17) A is)” as the molecule, how does the “concentration” value [3] read?
Its value is 200 nM.
